Data taken from the NIST ThermoML archive (doi:10.1021/je200373q).
Numbers after ± are expanded uncertainties.

Assay: xn = mol fraction of the nth substance listed
Conditions: 101 kPa, Liquid, Vibrating tube method

CCCCC [pentane] + CCCCCCCC
mass density [kg/m3]
Conditions | x1 = 0.1002 | x1 = 0.2008 | x1 = 0.3023 | x1 = 0.4019 | x1 = 0.5001 | x1 = 0.5982 | x1 = 0.7022 | x1 = 0.8003 | x1 = 0.8991
278.15 K | 709.35 ± 0.31 | 704.52 ± 0.33 | 698.24 ± 0.35 | 691.87 ± 0.36 | 685.19 ± 0.38 | 678 ± 0.4 | 669.63 ± 0.42 | 660.99 ± 0.45 | 651.39 ± 0.46
283.15 K | 705.34 ± 0.31 | 700.46 ± 0.33 | 694.11 ± 0.36 | 687.66 ± 0.37 | 680.91 ± 0.38 | 673.65 ± 0.4 | 665.18 ± 0.42 | 656.45 ± 0.45 | 646.73 ± 0.47
288.15 K | 701.31 ± 0.32 | 696.38 ± 0.34 | 689.94 ± 0.36 | 683.43 ± 0.37 | 676.6 ± 0.38 | 669.26 ± 0.4 | 660.68 ± 0.43 | 651.85 ± 0.46 | 642.04 ± 0.47
293.15 K | 697.26 ± 0.32 | 692.29 ± 0.34 | 685.74 ± 0.36 | 679.16 ± 0.37 | 672.26 ± 0.39 | 664.83 ± 0.41 | 656.15 ± 0.43 | 647.21 ± 0.46 | 637.29 ± 0.48
298.15 K | 693.19 ± 0.32 | 688.16 ± 0.34 | 681.52 ± 0.36 | 674.87 ± 0.37 | 667.88 ± 0.39 | 660.37 ± 0.41 | 651.58 ± 0.44 | 642.52 ± 0.46 | 632.49 ± 0.48
303.15 K | 689.09 ± 0.32 | 684.01 ± 0.34 | 677.28 ± 0.37 | 670.54 ± 0.38 | 663.47 ± 0.39 | 655.87 ± 0.41 | 646.96 ± 0.44 | 637.79 ± 0.47 | 627.64 ± 0.49
308.15 K | 684.97 ± 0.32 | 679.84 ± 0.34 | 673 ± 0.37 | 666.19 ± 0.38 | 659.03 ± 0.39 | 651.33 ± 0.42 | 642.31 ± 0.44 | 633 ± 0.47 | 622.72 ± 0.49
313.15 K | 680.83 ± 0.32 | 675.63 ± 0.35 | 668.7 ± 0.37 | 661.8 ± 0.38 | 654.59 ± 0.4 | 646.75 ± 0.42 | 637.61 ± 0.45 | 628.16 ± 0.48 | 617.96 ± 0.49
318.16 K | 676.64 ± 0.33 | 671.38 ± 0.35 | 664.36 ± 0.38 | 657.38 ± 0.38 | 650.06 ± 0.4 | 642.12 ± 0.43 | 632.85 ± 0.45 | 623.27 ± 0.47 | –
323.16 K | 672.43 ± 0.33 | 667.11 ± 0.35 | 659.99 ± 0.38 | 652.92 ± 0.39 | 645.5 ± 0.41 | 637.45 ± 0.43 | 628.04 ± 0.44 | – | –
328.16 K | 668.2 ± 0.33 | 662.81 ± 0.36 | 655.59 ± 0.38 | 648.42 ± 0.39 | 640.9 ± 0.41 | 632.73 ± 0.42 | – | – | –
333.15 K | 663.94 ± 0.33 | 658.48 ± 0.36 | 651.16 ± 0.4 | – | – | – | – | – | –
338.15 K | 659.63 ± 0.34 | 654.1 ± 0.36 | 646.68 ± 0.39 | – | – | – | – | – | –
343.15 K | 655.28 ± 0.34 | 649.68 ± 0.36 | 642.13 ± 0.39 | – | – | – | – | – | –
348.15 K | 650.9 ± 0.34 | 645.21 ± 0.37 | 637.57 ± 0.4 | – | – | – | – | – | –
353.15 K | 646.47 ± 0.34 | 640.7 ± 0.37 | 632.94 ± 0.4 | – | – | – | – | – | –
358.15 K | 642 ± 0.35 | 636.15 ± 0.37 | 628.27 ± 0.41 | – | – | – | – | – | –
363.15 K | 637.48 ± 0.35 | 631.54 ± 0.38 | 623.54 ± 0.41 | – | – | – | – | – | –
